In patent US7709514B2, “Therapeutic molecules and methods-1” (Cortical Pty Ltd, priority 2002, dated 2010):
“Also recorded” adds a separate entry of the source. Read-outs that look alike come from different tables or passages of the source.

Columns and labels:
[1] = test system: lymph node and splenic T cells; assay: ex vivo antigen-specific T cell activation after in vivo treatment; design: species or system mice
Description: In vivo administration of such a compound might be expected to exert effects on T cell responsiveness even after the T cells have been removed from exposure to the compound, that is, if T cells were studied ex vivo after in vivo treatment with the MIF antagonist compound. To measure ex vivo antigen-specific T cell activation, draining lymph nodes from arthritic limbs or spleens were removed from mice with murine antigen induced arthritis, induced as above with mBSA, at day 28 after first immunisation and a single cell suspension prepared in DMEM containing 5% FCS and 0.05% 2-mercaptoethanol. 1×10^5 cells/200 μl were cultured in triplicate in the presence or absence of mBSA (0.1, 1.0, 10 μg/ml) in 96-well plates for 48 hours (37° C., 5% CO2.) The T cell proliferation response was determined by measuring ^3H-thymidine incorporation during the final 18 hr. The cells were harvested and radioactivity incorporation into the DNA was measured with a Wallac 1409 liquid scintillation counter. The means of each triplicate culture were calculated. Each experiment comprised at least three individual animals and the results presented represent the mean±SEM of groups of animals in each experiment. The percentage inhibition of T cell proliferation was calculated using the result of the […] incorporation of cells from compound-treated animals subtracted from the ^3H-thymidine incorporation of cells from vehicle-treated animals.

[2] = test system: murine antigen induced arthritis; assay: murine antigen-induced arthritis, histological score; format: in vivo, mice
Procedure: Antigen-induced arthritis was induced in mice. C57BL6/J male mice, aged 7-10 weeks old, were immunized on day 0 with 200 μg methylated BSA (mBSA) emulsified in 200 μl of Freund's complete adjuvant (FCA) injected subcutaneously into the flank skin. Mice were treated with compound 5, administered by intraperitoneal injection, once per 24 hours at a dose of 15 mg/kg body weight. After seven days, mice received 100 μg mBSA and 100 μl FCA by intradermal injection at the base of the tail. After a further 14 days, arthritis was induced by intra-articular injection of 30 μg mBSA in 10 μl of sterile saline into the left knee, the right knee being injected with sterile saline alone.
Arthritis was analysed histologically at day 28 after first immunisation. Knee joints were dissected and fixed in 10% buffered formalin for 7 days. Fixed tissues were decalcified for 3 weeks in 15% ethylene-diamine-tetra-acetic acid (EDTA), dehydrated and embedded in paraffin. Sagittal sections (5 μm) of the knee joint were stained with Safranin-O and counterstained with fast green/iron hematoxylin. Histological sections were scored from 0 to 3 for four parameters: Synovitis was defined as hyper-cellularity of the synovium including pannus formation. Joint space exudate was identified as leukocytes, discretely or in aggregates, in the joint space. Cartilage degradation was defined as the loss of Safranin-O staining of articular cartilage (0=full stained cartilage, 3=totally unstained cartilage). Bone damage was defined as the extent and depth of the subchondral bone invasion by pannus. A total score was also generated from the sum of these four parameters (maximum 12).

[3] = test system: IL-1-induced COX-2 expression; assay: IL-1-induced COX-2 expression in S112 human dermal fibroblasts (MIF-dependent bioassay); format: cell-based
Procedure: The activity of compounds was studied in a bioassay utilising MIF-dependent activation of human dermal fibroblasts. […] IL-1-induced COX-2 expression is therefore a MIF-dependent event. […] Prior to experimentation, cells were seeded at 10^5 cells/ml in RPMI/0.1% BSA for 18 hours. […] After 6 hours, cells were collected and intracellular COX-2 protein determined by permeabilisation flow cytometry. […] Cellular fluorescence was determined using a flow cytometer. At least 5000 events were counted for each reading, each of which was performed in duplicate, and the results expressed in mean fluorescence intensity (MFI) after subtraction of negative control-labelled cell fluorescence. The effect of each compound was determined by subtracting the IL-1+compound-treated cell MFI from the IL-1-treated cell (control) MFI and expressed as % inhibition. In each case the % inhibition of IL-1-induced COX-2 expression is expressed as the mean, or mean±SEM where results are available from multiple experiments.

[4] = test system: murine peritoneal macrophage cytokine production; assay: inhibition of peritoneal macrophage cytokine production (ELISA); format: cell-based, mice; conditions: Mus musculus
Procedure: C57BL6/J male mice were injected intraperitoneally with 2 ml of thioglycollate. Five (5) days later peritoneal macrophages were collected by lavaging the peritoneum of anaesthetized mice with 3 ml of cold Hanks buffered saline solution. Cells from several mice were pooled, washed and re-suspended in DMEM supplemented with 5% FCS. Cells were plated in 96 well plastic tissue culture plates at 1×10^5 cells/well. Cells were treated with compound or vehicle for 1 hour in a 5% CO2 incubator at 37° C. Cells were then treated with LPS (10-100 ng/ml) or recombinant human interferon-γ (10 units/ml) and incubated for 24 hours. After 24 hours, 50 μl of supernatant from each well was carefully removed and transferred to ELISA plates. The concentration of interleukin 1 (IL-1) or interleukin 6 (IL-6) was measured by ELISA. The concentration of compound at which LPS- or interferon-γ-induced cytokine release was suppressed by 50% compared to vehicle-only-treated cells (EC50) was calculated using Prism® software. Table 9 lists the EC50 for two compounds tested in this assay.

[5] = test system: antigen-specific T cell activation; assay: antigen-specific (mBSA) activation of splenic T lymphocytes, 3H-thymidine incorporation; format: cell-based, mice; conditions: Mus musculus, T-cell, read-out: EC50, inhibition of T cell activation
Procedure: C57BL6/J male mice, aged 7-10 weeks old, were immunised with 200 μg of methylated bovine serum albumin (mBSA) dissolved in 20 μL of saline, emulsified in 200 μL of Freund's complete adjuvant (FCA) by subcutaneous injection. Seven (7) days later mice received a booster immunisation with 100 μg mBSA in 10 μL saline plus 100 μL FCA by subcutaneous injection. After a further seven (7) days mice were killed and spleens collected aseptically into Hanks buffered saline solution (HBSS). A single cell suspension was prepared in Petri dishes by flushing DMEM using a 26G needle and 2 mL syringe. The resulting cell suspension was centrifuged for 5-7 minutes and supernatant discarded. Erythrocytes were lysed using a solution containing 0.579% NH4Cl, 0.000037% EDTA, and 0.1% NaHCO3 in a 37° C. water bath. Tubes were then filled with DMEM and centrifuged for 5-7 minutes. The cell-containing pellet was then resuspended in DMEM containing 5% fetal calf serum TICS) and 0.05% 2-mercapto-ethanol at a concentration of 1×10^6 cells/mL and plated at 1×10^5 cells/well in 96-well plastic tissue culture plates. Test substances (compound or vehicle) were added and incubated for 1 hour in a 37° C., 5% CO2 incubator. The specific stimulating antigen, mBSA, was then added at 10-50 μg/ml and plates incubated for 30 hours in a 37° C., 5% CO2 incubator. Tritiated ^3H-thymidine was then added at a concentration of 0.5 μCi/well for a further 18 hours. Cells were harvested on a Packard cell harvester, and the harvested material added to 750 μL/tube scintillation fluid. Scintillation counts were read on a Wallac beta-emission counter.
The concentration at which T cell activation was suppressed by 50% compared to vehicle-only-treated cells (EC50) was calculated using Prism® software. […] Further compounds were also tested for their ability to inhibit antigen-specific T cell activation as a marker of the inhibition of the cytokine or biological activity of MIF using this assay. Table 5 lists the EC50 for each compound in this assay, performed with concentrations of mBSA of either 50 or 10 μg/ml.

[6] = test system: IL-1 induced phosphorylation of ERK; assay: IL-1 induced phosphorylation (activation) of ERK, Western blotting; format: cell-based, human; conditions: dexamethasone 10^-9 M alone; human dermal fibroblasts, IL-1 0.1 ng/ml, 30 minutes
Procedure: S112 human dermal fibroblasts cultured in RPMI (serum-free) medium were stimulated with recombinant human IL-1 0.1 ng/ml, as described herein, for 30 minutes, with or without the addition of dexamethasone 10^−9M or benzimidazol-2-one-5-pentanoate (compound 5) (50 μM). The phosphorylation (activation) of ERK was assessed using Western blotting with a mAb specific for the phosphorylated (activated) form of ERK. In brief, cells were disrupted by repeated aspiration through a 21-gauge needle. After incubation on ice for 10 min and microcentrifugation at 3000 rpm for 15 min (4° C.), the supernatants were removed, the protein concentration was determined, and the lysates were stored at −80° C. Equal amounts of cellular proteins were fractionated on 10% SDS-polyacrylamide electrophoresis gels and transferred to polyvinylidene difluoride membranes. Immunoblotting was performed using antibodies directed against phospho-p44/42 (ERK) and total p44142 according to the manufacturer's instructions. The intensity of ERK activation is proportional to the size and optical density (darkness) of the resulting blots. Total ERK blots serve as a loading control, such that changes in phosphorylated ERK represent changes in phosphorylation and not in total ERK protein.

Compound	ex vivo splenic T cell proliferation in response to mBSA ([1]; FIG. 11b, table 7, vs vehicle)	% inhibition of ex vivo splenic T cell activation ([1]; [mBSA] 10 μg/mL) [%]	Total arthritis score (mean ± SEM) ([2]; maximum 12, vehicle 6.25 ± 0.2)	severity of murine antigen induced arthritis ([2]; mouse, in vivo)	inhibition at 1 µM ([3]; Homo sapiens, Fibroblast, compound 1 μM, S112 cells, IL-1 0.1 ng/ml, 6 hours) [%]	inhibition at 10 µM ([3]; Homo sapiens, Fibroblast, compound 10 μM, S112 cells, IL-1 0.1 ng/ml, 6 hours) [%]	inhibition at 50 µM ([3]; Homo sapiens, Fibroblast, compound 50 μM, S112 cells, IL-1 0.1 ng/ml, 6 hours, read-out: % inhibition of IL-1-induced COX-2 expression) [%]	inhibition at 100 µM ([3]; Homo sapiens, Fibroblast, compound 100 μM, S112 cells, IL-1 0.1 ng/ml, 6 hours) [%]	EC50 ([4]; Interferon-γ 10 units/ml, read-out: EC50, IL-6 release) [µM]	EC50 ([4]; [LPS] 100 ng/mL, read-out: EC50, IL-1 release) [µM]	EC50 ([5]; mBSA 10 μg/ml) [µM]	EC50 ([5]; mBSA 50 μg/ml) [µM]	ERK activation by IL-1 [6]	% Inhibition of IL-1 induced COX-2 expression ([3]; Table 2 experiment, dexamethasone 10^-9 M alone) [%]
O=C(NCCc1ccc(O)c(O)c1)c1ccc2[nH]c(=O)[nH]c2c1 [Compound 13, N-(3,4-dihydroxyphenethyl)-2-oxo-2,3-dihydro-1H-1,3-benzimidazole-5-carboxamide]	reduced proliferative responses	28	5.17 ± 1.9	inhibitory effect	9.6	14.1	32.2	29.9	9.82	16.7	53.3	71.7		
C[C@@H]1C[C@H]2[C@@H]3CCC4=CC(=O)C=C[C@]4(C)[C@@]3(F)[C@@H](O)C[C@]2(C)[C@@]1(O)C(=O)CO [Dexamethasone, dexamethasone]													does not inhibit; also recorded: not inhibited	46.8
